Reference: patent US12590064B2, “Substituted benzamides for inhibiting perk activity” (ELI LILLY AND COMPANY, priority 2017, dated 2026)

How the values were obtained:
[1] = target: T1, EIF2AK3 (PERK) catalytic domain (Homo sapiens, UniProt Q9NZJ5); experiment: In vitro inhibition of PERK enzyme activity (isolated), TR-FRET kinase assay; assay type: biochemical; conditions: 1.5 μM ATP, 45 min
T1 construct: EIF2AK3 (PERK) catalytic domain (amino acids 536-1116); purchased Invitrogen, Carlsbad, CA
T1 sequence (Q9NZJ5 536-1116): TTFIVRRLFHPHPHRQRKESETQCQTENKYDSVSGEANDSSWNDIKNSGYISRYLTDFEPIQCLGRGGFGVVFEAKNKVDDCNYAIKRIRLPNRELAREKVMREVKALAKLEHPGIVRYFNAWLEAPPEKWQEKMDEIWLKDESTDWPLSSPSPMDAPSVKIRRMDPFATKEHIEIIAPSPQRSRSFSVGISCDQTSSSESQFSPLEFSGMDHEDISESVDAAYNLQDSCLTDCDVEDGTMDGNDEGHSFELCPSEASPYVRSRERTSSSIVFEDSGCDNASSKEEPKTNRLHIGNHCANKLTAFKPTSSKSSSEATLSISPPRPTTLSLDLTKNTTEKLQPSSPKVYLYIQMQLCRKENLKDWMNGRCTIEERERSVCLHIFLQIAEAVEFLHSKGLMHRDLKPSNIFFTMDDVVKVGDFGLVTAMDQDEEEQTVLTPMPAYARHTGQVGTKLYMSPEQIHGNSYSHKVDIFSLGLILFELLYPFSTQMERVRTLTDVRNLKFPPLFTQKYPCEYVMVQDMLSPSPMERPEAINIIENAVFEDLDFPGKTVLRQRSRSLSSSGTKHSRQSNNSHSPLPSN
Experimental: (§1) Recombinant human EIF2AK2 (PKR) catalytic domain (amino acids 252-551), EIF2AK3 (PERK) catalytic domain (amino acids 536-1116), GFP-eIF2α substrate, and Terbium-labelled phospho-eIF2a antibody is obtained (Invitrogen, Carlsbad, CA). Express and purify HIS-SUMO-GCN2 catalytic domain (amino acids 584-1019) from E. coli. Perform TR-FRET kinase assays in the absence or presence of inhibitors in a reaction buffer consisting of 50 mM HEPES, pH 7.5, 10 mM MgCl2, 1.0 mM EGTA, and 0.01% Brij-35, and 100-200 nM GFP-eIF2α substrate. […] Add test compound, initiate the reaction by addition of enzyme, and incubate at room temperature for 45 minutes. Stop the reaction by addition of EDTA to a final concentration of 10 mM, add Terbium-labelled phospho-eIF2α antibody at a final concentration of 2 nM, and incubate for 90 minutes. Monitor the resulting fluorescence in an EnVison® Multilabel reader (PerkinElmer, Waltham, MA). Determine TR-FRET ratios and the resulting IC50 values using a 4-parameter nonlinear logistic equation as shown: Y=(A+((B−A)/(1+((C/x)^D)))) where, Y=% specific inhibition, A=Bottom of the curve, B=Top of the curve, C=absolute IC50 (concentration causing 50% inhibition), and D=hill slope.

[2] = target: T2, PERK in GripTite 293 cells expressing GFP-eIF2α (Homo sapiens, UniProt Q9NZJ5); experiment: In vitro inhibition of PERK enzyme activity (whole cell), tunicamycin-induced phospho-eIF2α TR-FRET; assay type: cell-based; conditions: 1 h pre-treatment, Tunicamycin 1 μM 2 h
T2 construct: Add Tunicamycin (1 μM) to induce PERK activity; endogenous in cells; host or cells: GripTite 293 cells expressing GFP-eIF2α
T2 sequence (Q9NZJ5 30-1116): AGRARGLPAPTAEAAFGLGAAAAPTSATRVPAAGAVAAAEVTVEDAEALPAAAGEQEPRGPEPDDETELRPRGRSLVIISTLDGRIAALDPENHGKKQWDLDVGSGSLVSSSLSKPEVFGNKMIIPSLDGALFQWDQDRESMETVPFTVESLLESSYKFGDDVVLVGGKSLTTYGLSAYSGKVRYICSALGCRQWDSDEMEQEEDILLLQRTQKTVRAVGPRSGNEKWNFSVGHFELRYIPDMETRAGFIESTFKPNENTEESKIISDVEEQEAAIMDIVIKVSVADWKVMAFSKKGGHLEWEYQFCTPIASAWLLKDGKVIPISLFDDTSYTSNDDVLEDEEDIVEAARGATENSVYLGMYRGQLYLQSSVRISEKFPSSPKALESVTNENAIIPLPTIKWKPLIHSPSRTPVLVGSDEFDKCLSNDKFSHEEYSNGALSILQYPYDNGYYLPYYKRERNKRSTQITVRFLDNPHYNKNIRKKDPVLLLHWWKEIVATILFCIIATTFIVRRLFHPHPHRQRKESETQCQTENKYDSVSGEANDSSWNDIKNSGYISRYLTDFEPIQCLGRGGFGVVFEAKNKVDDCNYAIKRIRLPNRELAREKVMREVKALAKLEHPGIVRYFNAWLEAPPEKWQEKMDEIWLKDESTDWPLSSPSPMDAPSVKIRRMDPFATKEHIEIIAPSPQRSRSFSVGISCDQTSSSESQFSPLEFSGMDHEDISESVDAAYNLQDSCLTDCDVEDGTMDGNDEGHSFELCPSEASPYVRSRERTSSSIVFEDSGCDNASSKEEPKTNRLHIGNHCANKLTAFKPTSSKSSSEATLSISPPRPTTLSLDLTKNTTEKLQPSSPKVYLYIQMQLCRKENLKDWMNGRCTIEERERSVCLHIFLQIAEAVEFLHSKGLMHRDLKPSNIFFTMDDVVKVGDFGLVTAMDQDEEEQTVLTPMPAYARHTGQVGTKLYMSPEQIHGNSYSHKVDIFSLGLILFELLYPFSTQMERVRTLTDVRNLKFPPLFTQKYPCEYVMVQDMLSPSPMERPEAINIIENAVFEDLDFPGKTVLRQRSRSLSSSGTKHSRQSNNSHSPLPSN
Experimental: Seed GripTite™ 293 cells (Invitrogen, Carlsbad, CA) expressing GFP-eIF2α at 10,000 cells per well in 384-well plates and allow to attach overnight. Pre-treat cells with test compounds for 1 hour. Add Tunicamycin (1 μM) to induce PERK activity and incubate the plates at 37° C. for 2 hours. Remove the culture media and lyse the cells in buffer consisting of 20 mM Tris-HCl, pH 7.5, 150 mM NaCl, 5 mM EDTA, 1% NP-40, 5 mM NaF, Protease inhibitors (Sigma, St. Louis, MO), Phosphatase inhibitors (Sigma, St. Louis, MO), and 2 nM Terbium-labelled anti-phospho-eIF2 antibody (Invitrogen, Carlsbad, CA). Incubate the cell lysates for 2 hours in the dark at room temperature and monitor fluorescence in an EnVison® Multilabel reader (PerkinElmer, Waltham, MA). Determine TR-FRET ratios and the resulting IC50 values from the fitted inhibition curves using un-induced (100% inhibition) and induced (0% inhibition) wells as controls.

[3] = test system: BxPC-3 cells; experiment: In vivo inhibition of pancreatic cancer (mouse xenograft model); set-up: species or system female athymic nude mice
Experimental: Implant female athymic nude mice (Harlan Laboratories) subcutaneously with 5×10^6 BxPC-3 cells containing matrigel on the right flank and monitor tumor growth with calipers. Initiate compound dosing when tumors reach ˜250 mm^3 and dose mice twice per day by oral gavage (8 animals per group) for 28 days. Formulate compounds in 10% Acacia containing 0.05% anti-foam or 20% Captisol in 25 mM NaPO4 buffer pH […] the compounds of Examples 5 and 9, respectively. Treat control animals with Acacia vehicle alone. Estimate tumor volumes using the formula l×w^2×(π/6), where l is the larger measured diameter and w is the smaller perpendicular diameter. Calculate percent delta T/C using the formula 100×[(T−T0)/(C−C0)] and percent regression using the formula 100×[(T−T0)/T0], where T and C are mean tumor volumes in the treated and control groups, respectively. T0 and C0 are the corresponding baseline mean tumor volumes. Convert percent delta T/C to percent delta tumor growth inhibition (TGI) using the equation, 100−percent delta T/C. For statistical analysis, transform tumor volume data to log10 scale to equalize variance across time and treatment groups. Analyze the log10 volume data with a two-way repeated measures analysis of variance (Spatial Power correlation model) by time and treatment using the MIXED procedures in the SAS software package (Version 9.3). Compare treated groups to the control group at each time point.

[4] = target: T3, EIF2AK2 (PKR) catalytic domain (Homo sapiens, UniProt P19525); experiment: TR-FRET kinase assay, PKR; assay type: biochemical; conditions: 2.5 μM ATP, 45 min; read-out: Enzyme IC50 PKR
T3 construct: Recombinant human EIF2AK2 (PKR) catalytic domain (amino acids 252-551); purchased Invitrogen, Carlsbad, CA
T3 sequence (P19525 252-551): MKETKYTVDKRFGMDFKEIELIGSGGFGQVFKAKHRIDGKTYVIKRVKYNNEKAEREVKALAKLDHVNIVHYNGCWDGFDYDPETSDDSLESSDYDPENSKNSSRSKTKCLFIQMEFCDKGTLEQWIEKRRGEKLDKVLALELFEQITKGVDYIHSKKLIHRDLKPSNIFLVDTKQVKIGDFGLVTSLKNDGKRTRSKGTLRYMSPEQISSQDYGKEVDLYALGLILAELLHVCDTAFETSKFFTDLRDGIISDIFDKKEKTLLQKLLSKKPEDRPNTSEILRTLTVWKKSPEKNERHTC
Experimental: as §1

[5] = 30 mg/kg PO BID group, day 21 post-implant (before start of treatment)
[6] = 30 mg/kg PO BID group, day 24 post-implant (before start of treatment)
[7] = 30 mg/kg PO BID group, day 32 post-implant (before start of treatment)
[8] = 30 mg/kg PO BID group, day 35 post-implant (before start of treatment)
[9] = 30 mg/kg PO BID group, day 39 post-implant (before start of treatment)
[10] = 30 mg/kg PO BID group, day 47 post-implant (before start of treatment)
[11] = 30 mg/kg PO BID group, day 52 post-implant (day of randomization and start of treatment)
[12] = 30 mg/kg PO BID, day 60 post-implant
[13] = 30 mg/kg PO BID, day 67 post-implant
[14] = 30 mg/kg PO BID, day 72 post-implant
[15] = 30 mg/kg PO BID, day 74 post-implant
[16] = 30 mg/kg PO BID, day 76 post-implant
[17] = 30 mg/kg PO BID, day 79 post-implant

IC50 [1] [nM] | SMILES | Mean tumor volume [3, 5] [mm^3] | Mean tumor volume [3, 6] [mm^3] | Mean tumor volume [3, 7] [mm^3] | Mean tumor volume [3, 8] [mm^3] | Mean tumor volume [3, 9] [mm^3] | Mean tumor volume [3, 10] [mm^3] | Mean tumor volume [3, 11] [mm^3] | Mean tumor volume [3, 12] [mm^3] | T/C [3, 12] [%] | TGI (Tumor Growth Inhibition) [3, 12] [%] | Mean tumor volume [3, 13] [mm^3] | T/C [3, 13] [%] | TGI (Tumor Growth Inhibition) [3, 13] [%] | Mean tumor volume [3, 14] [mm^3] | T/C [3, 14] [%] | TGI (Tumor Growth Inhibition) [3, 14] [%] | Mean tumor volume [3, 15] [mm^3] | T/C [3, 15] [%] | TGI (Tumor Growth Inhibition) [3, 15] [%] | also measured
2.4 ± 1 | Cc1cc(NC(=O)[C@H](O)c2cccc(F)c2)ccc1-c1cn(C)c2ncnc(N)c12 [Example 9, (2R)—N-[4-(4-amino-7-methyl-pyrrolo[2,3-d]pyrimidin-5-yl)-3-methyl-phenyl]-2-(3-fluorophenyl)-2-hydroxy-acetamide] | 111.9 | 134.3 | 153.7 | 162.6 | 167.1 | 196.4 | 244.2 | 284.8 | 40.8 | 59.2 | 317.2 | 27.4 | 72.6 | 380.5 | 37.3 | 62.7 | 418.3 | 36.0 | 64.0 | IC50 [2]: 28 ± 11 nM; Mean tumor volume [3, 16]: 480.4 mm^3; T/C [3, 16]: 45.1%; TGI (Tumor Growth Inhibition) [3, 16]: 54.9%; Mean tumor volume [3, 17]: 541.6 mm^3; T/C [3, 17]: 40.5%; TGI (Tumor Growth Inhibition) [3, 17]: 59.5%
2.2 ± 1.2 | Cc1cc(NC(=O)[C@H](O)c2cc(F)cc(F)c2)ccc1-c1cnc(N)c(C(=O)NC(C)C)c1 [Example 1, 2-amino-5-[4-[[(2R)-2-(3,5-difluorophenyl)-2-hydroxy-acetyl]amino]-2-methyl-phenyl]-N-isopropyl-pyridine-3-carboxamide] | – | – | – | – | – | – | – | – | – | – | – | – | – | – | – | – | – | – | – | IC50 [4]: > 20000 nM
– | CNC(=O)c1nc(-c2ccc(NC(=O)[C@H](O)c3cc(F)cc(F)c3)cc2C)cnc1N [Example 5, 3-amino-6-[4-[[(2R)-2-(3,5-difluorophenyl)-2-hydroxy-acetyl]amino]-2-methyl-phenyl]-N-methyl-pyrazine-2-carboxamide] | 123.9 | 132.8 | 143.4 | 174.6 | 183.8 | 213.7 | 252.0 | 311.8 | 71.5 | 28.5 | 387.8 | 55.8 | 44.2 | 435.0 | 52.7 | 47.3 | 487.5 | 50.7 | 49.3 | IC50 [4]: > 20000 nM; Mean tumor volume [3, 16]: 528.8 mm^3; T/C [3, 16]: 54.5%; TGI (Tumor Growth Inhibition) [3, 16]: 45.5%; Mean tumor volume [3, 17]: 593.2 mm^3; T/C [3, 17]: 47.7%; TGI (Tumor Growth Inhibition) [3, 17]: 52.3%
